These results are taken from PubChem BioAssay AID179 (DTP/NCI, 2004).

The test system of the assay is CEM cells HIV-1 protection, formazan growth assay. The assay can be described thus: NCI AIDS Antiviral Assay. As to conditions: for IC50: measured here: growth of uninfected CEM cells. The procedure, abridged:
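Human CEM cells, uninfected and HIV-1-infected, exposed to five drug concentrations; growth measured by soluble formazan assay and scored as percent protection from infection, with protecting compounds retested.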

Molecules are shown by their SMILES. Values joined by “and” are separate entries in the source; they are usually repeats but may differ in a detail not shown here. Equal entries are not always repeated. Active and inactive are the calls of the source.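 Rule for the calls: active = compounds giving half or more protection of infected cells from virus-caused growth loss, again on retest; inactive = the rest.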 Where a SMILES comes first, the peptide text is derived from it. The star is where a group is joined. Cbz = O=C(OCc1ccccc1)*

For `C/C(O)=C(\C=NC(=S)c1cccnc1)C(=O)Nc1ccccc1C`, the EC50 is greater than 200 µM and the IC50 was greater than 200 µM.
As for `Cc1ccccc1NC(=O)/C(C#N)=N\Nc1nc[nH]c1C(N)=O`, the EC50 was greater than 200 µM and the IC50 turned out to be 0.257 µM.
For `O=C1Sc2ccccc2C(=O)N2C1CSC2c1ccccc1` (stereo unspecified), in that order: greater than 200 µM and greater than 200 µM.
Take `COc1ccc(CCNC(=O)Cc2ccccc2CO)cc1OC`: the EC50 is greater than 200 µM and the IC50 was greater than 200 µM.
`Cc1cn(C(=O)NC23CC4CC(CC(C4)C2)C3)c(=O)[nH]c1=O`: the EC50 was greater than 100 µM and the half-maximal inhibitory concentration (IC50) stood at 51.3 µM.
For `O=C(OCC(OC(=O)c1ccccc1)C1CC(C(O)C2CCCCC2)C(=O)O1)c1ccccc1` (stereo unspecified), in that order: greater than 200 µM and 21.9 µM.
In the case of `C[C@H]1C[C@H]2[C@@H]3CCC4=CC(=O)C=C[C@]4(C)[C@@]3(F)[C@@H](O)C[C@]2(C)[C@H]1O`, the outcome was inactive.
With `NS(=O)(=O)c1cc2c(cc1Cl)NCNS2(=O)=O`, the EC50 is greater than 832 µM and the half-inhibitory concentration (IC50) is 437 µM.
Take `COc1ccc(C[C@H](N)C(=O)N2C[C@H](CO)C[C@H](n3cnc4c(N(C)C)ncnc43)C2)cc1`: the EC50 was greater than 138 µM and the half-maximal inhibitory concentration (IC50) worked out at 81.3 µM.
With `C1CC[N-]CC1.Oc1ccccc1C=NCCN=Cc1ccccc1O.[Co]`, the EC50 was greater than 200 µM and the IC50 stood at 15.5 µM.
The corresponding values for `O=C(/C=C(\O)C(=O)O)/C=C(\O)c1ccc(Cl)cc1` are greater than 69.2 µM and greater than 69.2 µM.
The corresponding values for `O=c1[nH]c(O)c(/C=N/C(=S)N=Nc2c(O)[nH]c3ccccc23)c(=O)[nH]1` are greater than 200 µM and greater than 200 µM.
The corresponding values for `O=C1Cc2cccc(=O)c(O)c2C(=O)O1` are greater than 1200 µM and 282 µM.
For `NC(=O)c1c2n(c3ncnc(N)c13)C1OC(CO)C(O)C1S2` (stereo unspecified), the EC50 was greater than 389 µM and the IC50 was greater than 389 µM.
As for `CCCCCNP1(NCCCCC)=NP(NCCCCC)(NCCCCC)=NP(NCCCCC)(NCCCCC)=NP(NCCCCC)(NCCCCC)=N1`, the EC50 was greater than 50.1 µM and the IC50 is greater than 50.1 µM.
On to `O=C(O)C1=C(C(=O)O)N(c2ccncc2)C(c2ccco2)=CC1c1ccccc1[N+](=O)[O-]` (stereo unspecified), for which the EC50 is greater than 200 µM and the IC50 came to 2.24 µM.
For `COc1ccc2c(c1)CC1Cc3cc(OC)c(OC)cc3CN1CC2` (stereo unspecified), in that order: greater than 200 µM and 23.4 µM.
For `Cc1nnc(-n2c(O)cc(=O)n(-c3ccccc3)c2=S)nc1/C=C/c1ccc(N(C)C)cc1`, in that order: greater than 100 µM and 5.62 µM.
For `NC(=O)C(NCc1ccccc1)c1ccccc1` (stereo unspecified), in that order: greater than 200 µM and greater than 200 µM.
In the case of `COc1ccc(C(=O)C[P+](c2ccccc2)(c2ccccc2)c2ccccc2)cc1`, the EC50 was greater than 200 µM and the IC50 worked out at 33.9 µM.
For `CC(=O)/C(=N\Nc1ccc(Cl)cc1)C(C)=Nc1ccc(C)cc1`, in that order: greater than 200 µM and 30.2 µM.
The corresponding values for `CC(=O)Nc1cc2cc(NS(=O)(=O)c3cc(C(F)(F)F)cc(C(F)(F)F)c3)ccc2oc1=O` are greater than 27.5 µM and greater than 27.5 µM.
The corresponding values for `CC1(Cl)C(=O)NN=C1c1ccc([N+](=O)[O-])cc1` (stereo unspecified) are greater than 200 µM and 17.8 µM.
Turning to `Cc1ccc2c(c1)P1c3cc(C)ccc3SP1S2` (stereo unspecified), the EC50 is greater than 12.3 µM and the IC50 is greater than 12.3 µM.
For the molecule `Cc1[nH]c(=O)[nH]c(=O)c1C(=O)O`, the EC50 is greater than 200 µM and the IC50 is greater than 200 µM.
For the molecule `COc1ccc(/C=c2/sc3n(c2=O)NC2(CCCCC2)NN=3)cc1`, the result was inactive.
As to `CCCCOCC(=O)C1CC[C@@H]2[C@H](CC[C@]3(C)[C@@H](O)CC[C@@H]23)[C@H]1C(=O)O` (stereo partly specified), the EC50 was greater than 50.1 µM and the 50% inhibitory concentration (IC50) was greater than 50.1 µM.
Regarding `O=C1C=CC2(CCCCCCC2=O)CC1` (stereo unspecified), the result was inactive.
With `CCOC(=O)C(C)NC(=O)C(C)NC(=O)C(C)NC(=O)C(C)NC(=O)C(C)NC(=O)C(C)NC(=O)C(C)NC(=O)OCc1ccccc1` (stereo unspecified) (Cbz-AAAAAAA-OEt; configuration not given here), the EC50 is greater than 200 µM and the IC50 is greater than 200 µM.
For `COc1ccc(N=N/C(=N\NC(=O)c2cc(Br)ccc2O)c2ccc(N(CCC#N)CCC#N)cc2OC)cc1`, the EC50 was greater than 100 µM and the IC50 was found to be 18.2 µM.
Take `NC(=O)CNC(=O)[C@@H]1CC(OCCC(=O)O)CN1C(=O)C1CCCN1C(=O)OCc1ccccc1` (stereo partly specified): the EC50 was greater than 200 µM and the half-maximal inhibitory concentration (IC50) was greater than 200 µM.
On to `Cc1cc(N(CCC#N)CCC#N)ccc1N=Nc1cccc(Cl)c1`, for which the EC50 is greater than 7.76 µM and the half-maximal inhibitory concentration (IC50) was greater than 7.76 µM.
Take `O=c1oc2ccccc2c(O)c1C(c1ccc2ccccc2c1)c1c(O)c2ccccc2oc1=O`: the EC50 was greater than 200 µM and the concentration for half-maximal inhibition (IC50) came to 38.9 µM.
The corresponding values for `O=C1C2C(C(=O)N1Cc1ccccc1)N(Cc1ccccc1)C(=O)N2Cc1ccccc1` (stereo unspecified) are greater than 12.3 µM and greater than 12.3 µM.
For `COC1=CC(=O)C2C(C1=O)C(c1ccccc1)[C@H]2C` (stereo partly specified), in that order: greater than 372 µM and 22.9 µM.
For `CCOC(=O)C1=C(C)N2CCCOC2(C)C(C(=O)OC)C1c1cccc([N+](=O)[O-])c1` (stereo unspecified), in that order: greater than 200 µM and 69.2 µM.
Take `COc1cc2c(c(OC)c1OC)C(=O)C(Br)C2NC(=O)CCCCl` (stereo unspecified): the EC50 was greater than 200 µM and the IC50 is greater than 200 µM.
On to `CCN(CC)CCC(=O)c1ccccc1`, for which the EC50 was greater than 871 µM; the 50% inhibitory concentration (IC50) was > 200 µM and 26.9 µM.
As to `C(/C=C/c1ccccc1)=Nc1ccc(SSc2ccc(N=C/C=C/c3ccccc3)cc2)cc1`, the EC50 is greater than 200 µM and the IC50 stood at 16.6 µM.
For `O=C(C1OC1c1ccc(Br)cc1O)C12CC3CC(CC(C3)C1)C2` (stereo unspecified), in that order: greater than 200 µM and 110 µM.
Turning to `CC[C@H]1CN2CCc3cc(OC)c(OC)cc3[C@@H]2C[C@@H]1C[C@H]1NCCc2c1[nH]c1ccc(O)cc21`, the result was inactive.
For the molecule `Nc1ccc(/C=C/c2cccc3cccnc23)cc1`, the EC50 was 0.0631 µM and the IC50 is greater than 200 µM.
The corresponding values for `COc1cc2oc(=O)ccc2cc1CC=C(C)C` are greater than 40.7 µM and greater than 40.7 µM.
For `N#CC(C(=O)/C(=N/N)C(C#N)c1ccccc1)c1ccccc1` (stereo unspecified), in that order: greater than 309 µM and greater than 309 µM.
For `CC(=O)NNc1nc(C)c(C(=O)/C=C/c2ccc(/C=C/C(=O)c3sc(NNC(C)=O)nc3C)cc2)s1`, in that order: greater than 49 µM and greater than 49 µM.
Regarding `CC1(c2nc3cc(Cl)c(Cl)cc3[nH]2)CCC(C(=O)O)C(C)(C)O1` (stereo unspecified), the EC50 was greater than 200 µM and the IC50 is greater than 200 µM.
As for `OC1c2cccn2-c2cc(Cl)ccc2SC1c1ccccc1` (stereo unspecified), the EC50 is greater than 70.8 µM and the half-inhibitory concentration (IC50) stood at 4.47 µM.
For `N#Cc1cccc(/C=C(/C(=O)c2ccccc2)c2ccccc2)c1`, in that order: greater than 17 µM and 9.55 µM.
As to `N#C/C(=C\c1ccc(O)c(O)c1)C(=O)NCCN1CCN(C(=O)/C(C#N)=C/c2ccc(O)c(O)c2)CC1`, the EC50 is greater than 200 µM and the IC50 came to 26.3 µM.
Regarding `COC(=O)c1cc(=O)c2c(ccc3oc(=O)ccc32)[nH]1`, the EC50 was greater than 200 µM and the IC50 was determined as 170 µM.

By EC50 is commonly meant the midpoint of the concentration-response curve. As usually defined, the IC50 is the concentration at which inhibition is half-maximal.
